Assay results as given in the supplement of paper PMC10307832.

Experiments:
Experiment in all cases: relative viability (nuclei count vs DMSO), 5 days (fraction); higher = more cells survive
RO-3306 + Pemetrexed = compound: C1=CC2=C(C=CC(=C2)C=C3C(=O)NC(=NCC4=CC=CS4)S3)N=C1 [RO-3306] + Nc1nc2[nH]cc(CCc3ccc(C(=O)N[C@@H](CCC(=O)O)C(=O)O)cc3)c2c(=O)[nH]1 [Pemetrexed] (partner 0.2 µM)
Summary of the method: (§1)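 Lung cancer cell lines, seeded in 1536-well plates, were treated the following day by pin tool with a single drug or with five library-drug doses (not always all listed) in √10 steps on top of a fixed anchor-drug dose. Cells were fixed and nuclei stained in one step after 5 days, and nuclei were counted. Relative viability is the nuclei count for treated wells divided by that for vehicle wells, reported as medians of duplicate plates.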

RO-3306 + Dasatinib = compound: C1=CC2=C(C=CC(=C2)C=C3C(=O)NC(=NCC4=CC=CS4)S3)N=C1 [RO-3306] + Cc1nc(Nc2ncc(C(=O)Nc3c(C)cccc3Cl)s2)cc(N2CCN(CCO)CC2)n1 [Dasatinib] (partner 0.075 µM)
Summary of the method: as §1

[1] = compound: O=S(=O)(c1ccccc1)N(CC(F)(F)F)c1ccc(C(O)(C(F)(F)F)C(F)(F)F)cc1 + Cc1nc(Nc2ncc(C(=O)Nc3c(C)cccc3Cl)s2)cc(N2CCN(CCO)CC2)n1 [Dasatinib] (partner 0.075 µM)
Summary of the method: as §1

RO-3306 + Trametinib = compound: C1=CC2=C(C=CC(=C2)C=C3C(=O)NC(=NCC4=CC=CS4)S3)N=C1 [RO-3306] + CC(=O)Nc1cccc(-n2c(=O)n(C3CC3)c(=O)c3c(Nc4ccc(I)cc4F)n(C)c(=O)c(C)c32)c1 [Trametinib] (partner 0.02 µM)
Summary of the method: as §1

Cell Line | relative viability (RO-3306 + Pemetrexed; first compound 0.01 µM) | relative viability (RO-3306 + Pemetrexed; first compound 0.03162 µM) | relative viability (RO-3306 + Pemetrexed; first compound 0.1 µM) | relative viability (RO-3306 + Pemetrexed; first compound 0.3162 µM) | relative viability (RO-3306 + Pemetrexed; first compound 1 µM) | relative viability (RO-3306 + Dasatinib; first compound 0.01 µM) | relative viability (RO-3306 + Dasatinib; first compound 0.03162 µM) | relative viability (RO-3306 + Dasatinib; first compound 0.1 µM) | relative viability (RO-3306 + Dasatinib; first compound 0.3162 µM) | relative viability (RO-3306 + Dasatinib; first compound 1 µM) | relative viability ([1]; first compound 0.8 µM) | relative viability ([1]; first compound 2.53 µM) | relative viability ([1]; first compound 8 µM) | relative viability (RO-3306 + Trametinib; first compound 0.01 µM) | relative viability (RO-3306 + Trametinib; first compound 0.03162 µM) | relative viability (RO-3306 + Trametinib; first compound 0.1 µM) | relative viability (RO-3306 + Trametinib; first compound 0.3162 µM) | relative viability (RO-3306 + Trametinib; first compound 1 µM)
COR-L 105 | 1.25 | 0.993 | 1.04 | 0.913 | 0.95 | 0.3 | 0.302 | 0.271 | 0.344 | 0.335 | 0.299 | 0.4 | 0.363 | 0.392 | 0.491 | 0.427 | 0.434 | 0.538
NCI-H1915 | 0.609 | 0.495 | 0.52 | 0.49 | 0.572 | 0.341 | 0.312 | 0.288 | 0.329 | 0.253 | 0.284 | 0.276 | 0.291 | 0.319 | 0.276 | 0.297 | 0.32 | 0.292
PC-14 | 0.135 | 0.162 | 0.137 | 0.133 | 0.176 | 0.239 | 0.359 | 0.232 | 0.243 | 0.212 | 0.265 | 0.213 | 0.106 | 0.827 | 0.607 | 0.614 | 0.78 | 0.766
NCI-H2126 | 0.673 | 0.671 | 0.707 | 0.735 | 0.676 | 0.663 | 0.622 | 0.58 | 0.523 | 0.542 | 0.753 | 0.634 | 0.535 | 0.555 | 0.488 | 0.577 | 0.584 | 0.476
HARA | 0.242 | – | 0.227 | 0.24 | 0.288 | 0.362 | 0.256 | 0.356 | 0.306 | 0.257 | 0.294 | 0.287 | 0.242 | 0.448 | – | 0.519 | 0.694 | 0.741
NCI-H23 | 0.695 | – | 0.723 | 0.591 | 0.617 | 0.679 | 0.595 | 0.932 | 0.75 | 0.657 | 1.03 | 1.04 | 0.907 | 0.344 | – | 0.352 | 0.388 | 0.375
NCI-H1793 | 0.971 | – | 0.771 | 0.901 | 0.667 | 0.341 | 0.345 | 0.324 | 0.451 | 0.353 | 0.375 | 0.335 | 0.347 | 0.479 | – | 0.408 | 0.43 | 0.513
LK-2 | 0.266 | 0.293 | 0.264 | 0.275 | 0.288 | 0.333 | – | 0.489 | 0.258 | 0.283 | 0.36 | 0.37 | 0.432 | 1.01 | 0.659 | 0.692 | 0.872 | 0.872
NCI-H358 | 0.192 | 0.154 | 0.177 | 0.189 | 0.174 | 0.145 | 0.155 | 0.169 | 0.133 | 0.191 | 0.124 | 0.144 | 0.148 | 0.131 | 0.131 | 0.127 | 0.135 | 0.12
EKVX | 0.416 | 0.306 | 0.405 | 0.444 | 0.454 | 0.349 | – | 0.514 | 0.55 | 0.492 | 0.525 | 0.514 | 0.335 | 0.328 | 0.298 | 0.362 | 0.328 | 0.324
NCI-H1755 | 0.656 | 0.505 | 0.446 | 0.426 | 0.404 | 0.46 | 0.417 | 0.441 | 0.366 | 0.411 | 0.373 | 0.368 | 0.429 | 0.859 | 0.768 | 0.791 | 0.803 | 0.771
NCI-H460 | 0.0602 | 0.0669 | 0.0671 | 0.0618 | 0.0563 | 0.543 | 0.435 | 0.448 | 0.518 | 0.385 | 0.654 | 0.459 | 0.574 | 0.162 | 0.115 | 0.139 | 0.223 | 0.128
NCI-H2405 | 0.913 | 1.02 | 1.01 | 0.971 | 0.907 | 0.199 | 0.493 | 0.173 | 0.225 | 0.463 | 0.117 | 0.15 | 0.134 | 0.637 | 0.557 | 0.636 | 0.63 | 0.613
LU99A | 0.285 | 0.267 | 0.174 | 0.176 | 0.188 | 0.606 | 0.581 | 0.553 | 0.507 | 0.553 | 0.652 | 0.603 | 0.629 | 0.638 | 0.522 | 0.556 | 0.554 | 0.575
NCI-H2087 | 0.678 | 0.677 | 0.636 | 0.652 | 0.648 | 1.01 | 0.541 | 0.914 | 0.869 | 1.04 | 0.72 | 0.713 | 0.74 | 0.176 | 0.193 | 0.188 | 0.234 | 0.202
SK-MES-1 | 1.14 | 1 | 0.981 | 0.968 | 0.938 | 0.341 | 0.44 | 0.344 | 0.379 | 0.348 | 0.318 | 0.332 | 0.255 | 0.519 | 0.537 | 0.483 | 0.491 | 0.562
HCC-827 | 0.265 | 0.26 | 0.27 | 0.254 | 0.277 | 0.221 | 0.314 | 0.24 | 0.317 | 0.299 | 0.37 | 0.36 | 0.316 | 0.544 | 0.476 | 0.516 | 0.571 | 0.462
SW 900 | 0.487 | 0.383 | 0.464 | 0.488 | 0.411 | 0.505 | 0.538 | 0.658 | 0.859 | 0.542 | 0.625 | 0.563 | 0.478 | 0.885 | 0.742 | 0.752 | 0.663 | 0.804
